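Growth conditions: 96-well plates. Treatment: test compound, 48 hours, 5 concentrations. Analysis: linear interpolation between bracketing concentrations; unreached endpoints set to highest concentration. Abbreviation: GI50, concentration required for 50% inhibition of growth.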 The source made the active and inactive calls. Cut-off read from the data, not from the text of the source: active = GI50 up to about 1.1 µM and inactive = higher.
What was measured:
Experiment in all cases: NCI-60 cell line screen, 48 h
ACHN = system: ACHN
OVCAR-3 = system: OVCAR-3
HCT-116 = system: HCT-116
UACC-257 = system: UACC-257
COLO 205 = system: COLO 205
SW-620 = system: SW-620
NCI-H522 = system: NCI-H522
PC-3 = system: PC-3
SF-268 = system: SF-268
SK-MEL-5 = system: SK-MEL-5
A549 = system: A549
HCC 2998 = system: HCC 2998
DU-145 = system: DU-145
K562 = system: K562
SNB-19 = system: SNB-19
MDA-MB-231 = system: MDA-MB-231

Compound	GI50 (ACHN)	GI50 (OVCAR-3)	GI50 (HCT-116)	GI50 (UACC-257)	GI50 (COLO 205)	GI50 (SW-620)	GI50 (NCI-H522)	GI50 (PC-3)	GI50 (SF-268)	GI50 (SK-MEL-5)	GI50 (A549)	GI50 (HCC 2998)	GI50 (DU-145)	GI50 (K562)	GI50 (SNB-19)	GI50 (MDA-MB-231)
C[N+](C)(C)CCN[N+]1(C)CCCc2ccccc21 (configuration not stated)	> 100 µM (inactive)	> 100 µM (inactive)	52 µM (inactive)	> 100 µM (inactive)	36.2 µM (inactive)	38.5 µM (inactive)	18.5 µM (inactive)	> 100 µM (inactive)	> 100 µM (inactive)	> 100 µM (inactive)	> 100 µM (inactive)	> 100 µM (inactive)	> 100 µM (inactive)	39 µM (inactive)	> 100 µM (inactive)	> 100 µM (inactive)
C=C(C)CN(CC#N)CC(=C)C	> 100 µM (inactive)	> 100 µM (inactive)	> 100 µM (inactive)	> 100 µM (inactive)	> 100 µM (inactive)	> 100 µM (inactive)	> 100 µM (inactive)	> 100 µM (inactive)	> 100 µM (inactive)	> 100 µM (inactive)	> 100 µM (inactive)	> 100 µM (inactive)	> 100 µM (inactive)	> 100 µM (inactive)	> 100 µM (inactive)	> 100 µM (inactive)
COC1(OC)CC(CO)(CNc2nc(N)nc(Cl)c2/C=N\O)C1	24.6 µM (inactive)	21.7 µM (inactive)	50.4 µM (inactive)	27.7 µM (inactive)	38.6 µM (inactive)	> 100 µM (inactive)	6.67 µM (inactive)	55.5 µM (inactive)	> 100 µM (inactive)	43.1 µM (inactive)	59.7 µM (inactive)	> 100 µM (inactive)	34.3 µM (inactive)	17.7 µM (inactive)	40.7 µM (inactive)	72.9 µM (inactive)
CCOC(=O)C(C(=O)c1ccccc1C(=O)OC)=P(c1ccccc1)(c1ccccc1)c1ccccc1	> 10 µM (inactive)	> 10 µM (inactive)	> 10 µM (inactive)	> 10 µM (inactive)	> 10 µM (inactive)	> 10 µM (inactive)	> 10 µM (inactive)	> 10 µM (inactive)	> 10 µM (inactive)	> 10 µM (inactive)	> 10 µM (inactive)	> 10 µM (inactive)	> 10 µM (inactive)	> 10 µM (inactive)	> 10 µM (inactive)	> 10 µM (inactive)
CC(=O)OCC1(C)C(O)CCC2(C)C1CCC1CC3CC12CCC3(O)CO (configuration not stated)	4.46 µM (inactive)	> 100 µM (inactive)	76 µM (inactive)	> 100 µM (inactive)	> 100 µM (inactive)	> 95.7 µM (inactive)	> 26.6 µM (inactive)	> 91 µM (inactive)	> 80.2 µM (inactive)	> 79.4 µM (inactive)	55.1 µM (inactive)	20.8 µM (inactive)	42.6 µM (inactive)	> 100 µM (inactive)	> 100 µM (inactive)	> 100 µM (inactive)
Cc1c(C(=O)c2ccc(N)c3ccccc23)c2ccccc2n1CCN1CCOCC1	31.4 µM (inactive)	15.7 µM (inactive)	19.5 µM (inactive)	17.3 µM (inactive)	27.5 µM (inactive)	26.1 µM (inactive)	6.82 µM (inactive)	27.5 µM (inactive)	28.6 µM (inactive)	15.5 µM (inactive)	13.1 µM (inactive)	21.1 µM (inactive)	31.1 µM (inactive)	25.5 µM (inactive)	21.5 µM (inactive)	12.6 µM (inactive)
COc1ccc2c(O)c(S(=O)(=O)c3ccc(C)cc3)c(=O)oc2c1OC	> 100 µM (inactive)	> 100 µM (inactive)	> 100 µM (inactive)	> 100 µM (inactive)	> 100 µM (inactive)	> 100 µM (inactive)	> 100 µM (inactive)	> 100 µM (inactive)	> 100 µM (inactive)	> 100 µM (inactive)	> 100 µM (inactive)	> 100 µM (inactive)	> 100 µM (inactive)	> 100 µM (inactive)	> 100 µM (inactive)	> 100 µM (inactive)
COc1cnnc2c(C)c(-c3ccccc3)nn12	68.9 µM (inactive)	59.2 µM (inactive)	77.1 µM (inactive)	> 90.8 µM (inactive)	> 100 µM (inactive)	> 100 µM (inactive)	> 93.5 µM (inactive)	> 86.5 µM (inactive)	82.4 µM (inactive)	> 75.5 µM (inactive)	> 95.9 µM (inactive)	> 100 µM (inactive)	24.3 µM (inactive)	> 100 µM (inactive)	> 77.6 µM (inactive)	> 61.9 µM (inactive)
NC(=O)CN1CC(C2=C(O)CN(CC(N)=O)C2=O)=CC1=O	> 100 µM (inactive)	> 100 µM (inactive)	> 100 µM (inactive)	> 100 µM (inactive)	> 100 µM (inactive)	> 100 µM (inactive)	> 100 µM (inactive)	> 100 µM (inactive)	> 100 µM (inactive)	> 100 µM (inactive)	> 100 µM (inactive)	> 100 µM (inactive)	> 100 µM (inactive)	> 100 µM (inactive)	> 100 µM (inactive)	> 100 µM (inactive)
COc1ncnc2c1cnn2Cc1cn(COCC(O)CO)nn1 (configuration not stated)	> 100 µM (inactive)	> 100 µM (inactive)	> 100 µM (inactive)	> 100 µM (inactive)	> 100 µM (inactive)	> 100 µM (inactive)	10.8 µM (inactive)	> 100 µM (inactive)	16.3 µM (inactive)	> 100 µM (inactive)	> 100 µM (inactive)	> 100 µM (inactive)	> 100 µM (inactive)	> 100 µM (inactive)	> 100 µM (inactive)	> 100 µM (inactive)
CCOC(=O)C1C(=O)CC(C)(O)C(C(=O)OCC)C1c1ccc(N(C)C)cc1 (configuration not stated)	> 100 µM (inactive)	> 100 µM (inactive)	> 100 µM (inactive)	> 100 µM (inactive)	> 100 µM (inactive)	> 100 µM (inactive)	> 100 µM (inactive)	> 100 µM (inactive)	> 100 µM (inactive)	> 100 µM (inactive)	> 100 µM (inactive)	> 100 µM (inactive)	> 100 µM (inactive)	> 100 µM (inactive)	> 100 µM (inactive)	> 100 µM (inactive)
NC(=O)C(NC=O)c1ccccc1 (configuration not stated)	> 100 µM (inactive)	> 100 µM (inactive)	> 100 µM (inactive)	> 100 µM (inactive)	> 100 µM (inactive)	> 100 µM (inactive)	> 100 µM (inactive)	> 100 µM (inactive)	> 100 µM (inactive)	> 100 µM (inactive)	> 100 µM (inactive)	> 100 µM (inactive)	> 100 µM (inactive)	> 100 µM (inactive)	> 100 µM (inactive)	> 100 µM (inactive)
N=C1N(S(=O)(=O)c2ccccc2)[C@@H](Cc2ccccc2)[C@H](c2ccccc2)C1(c1ccccc1)c1ccccc1	> 100 µM (inactive)	10.4 µM (inactive)	40.4 µM (inactive)	35.6 µM (inactive)	80.7 µM (inactive)	> 100 µM (inactive)	39.5 µM (inactive)	9.62 µM (inactive)	> 100 µM (inactive)	23.6 µM (inactive)	> 100 µM (inactive)	27.2 µM (inactive)	> 100 µM (inactive)	71.1 µM (inactive)	> 100 µM (inactive)	> 100 µM (inactive)
CC(C)CC1C(=O)NCCC(NC(=O)C(N)Cc2ccc(O)cc2)C(=O)NC(Cc2ccccc2)C(=O)NC(Cc2ccccc2)NC1=O (configuration not stated)	> 100 µM (inactive)	> 100 µM (inactive)	> 100 µM (inactive)	> 100 µM (inactive)	> 100 µM (inactive)	> 100 µM (inactive)	> 100 µM (inactive)	> 100 µM (inactive)	> 100 µM (inactive)	17.9 µM (inactive)	> 100 µM (inactive)	> 100 µM (inactive)	> 100 µM (inactive)	> 100 µM (inactive)	> 100 µM (inactive)	> 100 µM (inactive)
CC(C)(C)OC(=O)NC(CS(=O)(=O)O)C(=O)O (configuration not stated)	> 100 µM (inactive)	> 100 µM (inactive)	> 100 µM (inactive)	> 100 µM (inactive)	> 100 µM (inactive)	> 100 µM (inactive)	> 100 µM (inactive)	> 100 µM (inactive)	> 100 µM (inactive)	> 100 µM (inactive)	> 100 µM (inactive)	> 100 µM (inactive)	> 100 µM (inactive)	> 100 µM (inactive)	> 100 µM (inactive)	> 100 µM (inactive)
CCC1c2[nH]c3ccccc3c2C[C@H]2C(=O)NC(Cc3ccccc3)C(=O)N12 (some centres not stated)	30.5 µM (inactive)	31 µM (inactive)	24.7 µM (inactive)	18 µM (inactive)	20.6 µM (inactive)	35.6 µM (inactive)	22.9 µM (inactive)	20.8 µM (inactive)	27.2 µM (inactive)	19.9 µM (inactive)	30.1 µM (inactive)	26 µM (inactive)	40 µM (inactive)	31.4 µM (inactive)	34.9 µM (inactive)	21 µM (inactive)
Cc1cc(C)c2c(O)cc(-c3cccc(Cl)c3)nc2n1	2.12 µM (inactive)	0.106 µM (active)	0.0791 µM (active)	1.95 µM (inactive)	0.175 µM (active)	0.0578 µM (active)	0.0356 µM (active)	0.0282 µM (active)	1.05 µM (active)	0.0518 µM (active)	0.227 µM (active)	0.403 µM (active)	0.5 µM (active)	< 0.0199 µM (active)	0.349 µM (active)	0.256 µM (active)
